Laboratory results published in US20250205204A1, “Transcription Factor Brn2 Inhibitory Compounds for Use as Therapeutics” (The University of British Columbia, priority 2021, published 2025).

Tests used:
42D^ENZR cells = assay: Cell proliferation, BRN2 expressing 42D cells (crystal violet); type: cell-based; conditions: about 72 hours; for Growth Specificity: 42D (express BRN2) versus 16D (no BRN2) cells, result in words; for IC50: 42D cells, proliferation, read-out: 42D IC50
Protocol: Step 3: Cell Proliferation
Plate 42DE^NZR (˜7000 cells per well) and 16D^CRPC (˜5000 cells per well) cells in 96 well plate with a volume of 100 μL per well. • 2. Next day 1 mL aliquots of media are combined with 3× the desired concentration of compounds. The aliquots are vortexed and 50 μL of each 3× concentration is added to the 100 μL of media in each well to give the ix desired concentration.
The following are the desired concentrations:
Approximately 72 hours later, 17 μL of 10% Glutaraldehyde is added to each well and plates are placed on a shaker for 20-30 minutes. • 4. Media is washed off the fixed cells by slow submersion in a container of water. Then the water is removed by tapping the plate upside down. • 5. 75 μL of Crystal Violet™ solution is added into the 96 well plates and placed on a shaker for ˜30 minutes. • 6. Media is washed off the fixed cells by repeated slow submersion in a container of water and the plates are allowed to dry over-night. • 7. Next day, 75 μL of Sorensen Solution is accurately pipetted into each well. The plates placed on a shaker for ˜30 minutes. • 8. Absorbance is measured in the plate at 590 nm.
There is a distinction in TABLES 1 and 2 difference between “Active” and “Specific” or “Specificity”.

[1] = Metabolic stability in liver microsomes (MLM); type: in vitro ADME, mice; conditions: 0.25 mg/mL protein; for half-life at 1 μM: mouse, liver microsomes, pH 7.4, 1 μM compound, read-out: T1/2 in mins (MLM); for Met Stab % (60 mins) MLM: percent remaining at 60 min, 1 μM compound, 1 mM NADPH
Protocol: Preparation of Potassium Phosphate Buffer, 50 mM (pH 7.4)
Potassium phosphate buffer (Kphos) was prepared by adding 0.647 g potassium phosphate monobasic (KH2PO4) and 3.527 g potassium phosphate dibasic (KH2PO4) to 400 mL of Milli-Q™ water. pH of the buffer was adjusted to 7.4 and volume was made up to 500 mL.
Preparation of Microsomes
Stock solutions of BRN2 inhibitors were prepared in DMSO at a concentration of 1 mM
Preparation of NADPH Solution
• Total Incubation volume: 100 μL • Compound concentration: 1 μM • Protein Concentration: 0.25 mg/mL • NADPH: 1 mM • Final DMSO contain: 0.1% • Number of replicates: 2 • Time points: 0, 5, 15, 30 and 60 min
From the above mix, 70 μL was added to individual wells of 96 well reaction plates and pre-incubated in a 37° C. water bath for 5 min. […] Reactions without NADPH and buffer controls (minus NADPH) at 0 min and 60 min were also incubated to rule out non-NADPH metabolism or chemical instability in the incubation buffer. All reactions were terminated using 100 μL of ice-cold acetonitrile containing internal standard at 0, 5, 15, 30 and 60 min.
Samples were monitored for parent compounds disappearance in MRM mode using LC-MS/MS.
The percent remaining of test compounds and positive control in each sample was determined by considering peak area ratio in the 0 minute sample as 100%. The Half-life of compounds in microsomes is calculated by formula: […]
In vitro intrinsic clearance (CL'int) (units in mL/min/kg) was calculated using the formula.
[formula] • For liver microsomes, scaling factor used was 45 mg microsomal protein per gm liver. • * Indicates liver weight (gm) which varies species wise. For mice the liver weights are 90 gm.

BRN2 = target: T1, BRN2 (Homo sapiens, UniProt P20265); assay: BLI binding; conditions: result in words
T1 sequence (P20265 1-443): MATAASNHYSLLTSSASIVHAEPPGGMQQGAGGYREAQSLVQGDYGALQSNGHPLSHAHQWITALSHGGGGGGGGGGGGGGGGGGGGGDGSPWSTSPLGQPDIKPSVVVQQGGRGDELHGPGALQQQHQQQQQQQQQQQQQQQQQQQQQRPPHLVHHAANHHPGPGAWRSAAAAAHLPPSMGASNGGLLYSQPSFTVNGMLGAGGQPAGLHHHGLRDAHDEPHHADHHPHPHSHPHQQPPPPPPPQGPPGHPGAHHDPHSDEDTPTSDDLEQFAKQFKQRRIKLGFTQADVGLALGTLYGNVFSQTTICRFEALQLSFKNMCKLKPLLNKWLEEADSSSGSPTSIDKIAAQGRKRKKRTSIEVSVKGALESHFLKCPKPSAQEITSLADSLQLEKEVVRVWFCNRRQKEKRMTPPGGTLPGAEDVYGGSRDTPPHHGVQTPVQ

Row | Compound | half-life at 1 μM [1] | Met Stab % (60 mins) MLM [1] | BLI binding (BRN2) | Growth Specificity (42D^ENZR cells) | IC50 (42D^ENZR cells)
1 | CN(C)c1ccc2c(c1)C/C(=N/Nc1nc3ccccc3s1)C2=O [7-127] | 23 min | 14% | No binding | Not specific | 
2 | O=C1/C(=N\Nc2nc3ccccc3s2)Cc2c(F)cccc21 [7-126] | 15 min | 6% | binding | specific | 
3 | N#Cc1ccc2c(c1)C/C(=N/Nc1nc3ccccc3s1)C2=O [7-93] | 44 min | 39% | no binding | Specific but weak | ~15000 nM
4 | O=C1/C(=N\Nc2nc3ccccc3s2)Cc2cc(Cl)ccc21 [7-71, (Z)-2-(2-(benzo[d]thiazol-2-yl)hydrazineylidene)-5-chloro-2,3-dihydro-1H-inden-1-one] | 47 min | 35% | Positive binding | Specific to 42D but weak | ~15000 nM
5 | O=C1/C(=N\Nc2nc3ccccc3s2)Nc2cc(Br)ccc21 [7-116] | > 60 min | 64% | No binding | Not specific | 
6 | O=C1/C(=N\Nc2nc3ccccc3s2)Nc2ccccc21 [7-95] | > 60 min | 69% | Positive binding | Specific but weak | ~15000 nM
7 | O=C1/C(=N\Nc2nc3ccccc3s2)Nc2cc(F)ccc21 [7-123] | 25 min | 18% | No binding | Not specific | 
8 | O=C1/C(=N\Nc2nc3ccccc3s2)Cc2cc(N3CCOCC3)ccc21 [7-103] | 44 min | 42% | No binding | Not specific | 
9 | COC(=O)c1ccc2nc(N/N=C3/Cc4ccccc4C3=O)sc2c1 [7-111] | 15 min | 6% | No binding | No activity | 
10 | CNC(=O)c1ccc2c(c1)C/C(=N/Nc1nc3ccccc3s1)C2=O [7-117] |  |  | No binding | Not specific | 
11 | O=C1/C(=N\Nc2nc3ccccc3s2)Cc2ccc(F)cc21 [7-81, (Z)-2-(2-(benzo[d]thiazol-2-yl)hydrazineylidene)-6-fluoro-2,3-dihydro-1H-inden-1-one] | 22 min | 26% | Positive binding | Specific to 42D | 
12 | O=C1/C(=N\Nc2nc3ccccc3s2)Cc2cc(F)c(F)cc21 [7-97] | > 60 min | 69% | Positive binding | Specific to 42D | ~2000 nM
13 | O=C1/C(=N\Nc2nc3ccccc3s2)Cc2c(Cl)cccc21 [7-125] | 44 min | 36% | No binding | specific | 
14 | Fc1cc(Br)c2c(c1)/C(=N\Nc1ccc3ccccc3n1)CC2 [7-45] | 21 min | 14% |  | Not effective on 42D or 16D cells | 
15 | CC1(C)/C(=N/Nc2nc3ccccc3s2)C(=O)c2ccccc21 [7-67, (Z)-2-(2-(benzo[d]thiazol-2-yl)hydrazineylidene)-3,3-dimethyl-2,3-dihydro-1H-inden-1-one] | 34 min | 28% |  | not specific | 

More lines, main results first:

Row | half-life at 1 μM [1] | Met Stab % (60 mins) MLM [1] | BLI binding (BRN2) | Compound | Growth Specificity (42D^ENZR cells) | IC50 (42D^ENZR cells)
16 | > 60 min | 50% | Positive binding | O=C1/C(=N\Nc2nc3ccccc3s2)Cc2cc(Br)ccc21 [7-94] | Specific to 42D | ~2000 nM
17 | 36 min | 30% | Positive binding | O=C1/C(=N\Nc2nc3ccccc3s2)Cc2cc(O)ccc21 [7-121] | Not specific | 
18 | 44 min | 40% | No binding | CN1/C(=N/Nc2nc3ccccc3s2)C(=O)c2ccccc21 [7-114] | precipitates | 
19 | 13 min | 3% | Positive binding | CCN(CC)c1ccc2c(c1)C(=O)/C(=N\Nc1nc3ccccc3s1)C2 [7-109] | Not specific | 
20 | > 60 min | 67% | Positive binding | O=C1/C(=N\Nc2nc3ccccc3s2)Cc2c1cccc2C(F)(F)F [7-91] | Specific to 42D | ~2000 nM
21 |  |  | No binding | CNC(=O)c1ccc2c(c1)C(=O)/C(=N\Nc1nc3ccccc3s1)C2 [7-118] | very low activity | 
22 | > 60 min | 67% | Positive binding | O=C1/C(=N\Nc2nc3ccccc3s2)Cc2c1ccc(F)c2F [7-101] | Specific to 42D cells | 1000 to 2500 nM
23 | 13 min | 4% | no binding | O=C1/C(=N\Nc2nc3ccccc3s2)Oc2ccccc21 [7-90] | Not specific | 
24 | 7 min | 2% | No binding | CN1C(=O)/C(=N/Nc2nc3ccccc3s2)c2ccccc21 [7-115] | Not specific | 
25 | 38 min | 30% | Positive binding | O=C1/C(=N\Nc2nc3ccccc3s2)Cc2cc(F)c(Cl)cc21 [7-100] | Specific to 42D | ~2000 nM
26 | 10 min | 1% | No binding | CC(C)c1ccc2c(c1)C/C(=N/Nc1nc3ccccc3s1)C2=O [7-122] | Not specific | 
27 | 24 min | 17% | No binding | Nc1ccc2c(c1)C/C(=N/Nc1nc3ccccc3s1)C2=O [7-120] | Not specific | 
28 | 27 min | 21% | No binding | O=C1Nc2cc(F)ccc2/C1=N\Nc1nc2ccccc2s1 [7-124] | Not specific | 
29 | 32 min | 26% | No binding | O=C1/C(=N\Nc2nc3ccccc3s2)Cc2cc(N3CCCCC3)ccc21 [7-112] | Not specific | 
30 | 15 min | 6% | No binding | O=C1/C(=N\Nc2nc3ccccc3s2)Cc2cc(N3CCC3)ccc21 [7-113] | precipitates | 
31 | 17 min | 7% |  | Fc1cc(F)c2nc(N/N=C3\CCc4ccccc43)sc2c1 [7-39] | Not effective on 42D or 16D cells | 
